In US5143927A, “3-(thiazolidone, oxazolidinone, imidazolidinone)-indoles as antiinflammatory agents” (Warner-Lambert Company, priority 1991, dated 1992):
pIC50: −log10 of the molar value. Where two headings read alike, the source gives them in different places.

Key:
5-lipoxygenase = molecular target: T1, 5-lipoxygenase (Rattus norvegicus, UniProt P12527); experiment: ARBL whole cell 5-lipoxygenase assay (inhibition of LTB4 formation in RBL-1 cells); format: cell-based; conditions: for pIC50: A23187 (5 μM) stimulated, LTB4 formation; for inhibition at 10 µM: A23187 stimulated
T1 construct: endogenous in cells; host or cells: RBL-1 (rat basophilic leukemia cells, from the American Type Culture Collection)
T1 sequence (P12527 1-673): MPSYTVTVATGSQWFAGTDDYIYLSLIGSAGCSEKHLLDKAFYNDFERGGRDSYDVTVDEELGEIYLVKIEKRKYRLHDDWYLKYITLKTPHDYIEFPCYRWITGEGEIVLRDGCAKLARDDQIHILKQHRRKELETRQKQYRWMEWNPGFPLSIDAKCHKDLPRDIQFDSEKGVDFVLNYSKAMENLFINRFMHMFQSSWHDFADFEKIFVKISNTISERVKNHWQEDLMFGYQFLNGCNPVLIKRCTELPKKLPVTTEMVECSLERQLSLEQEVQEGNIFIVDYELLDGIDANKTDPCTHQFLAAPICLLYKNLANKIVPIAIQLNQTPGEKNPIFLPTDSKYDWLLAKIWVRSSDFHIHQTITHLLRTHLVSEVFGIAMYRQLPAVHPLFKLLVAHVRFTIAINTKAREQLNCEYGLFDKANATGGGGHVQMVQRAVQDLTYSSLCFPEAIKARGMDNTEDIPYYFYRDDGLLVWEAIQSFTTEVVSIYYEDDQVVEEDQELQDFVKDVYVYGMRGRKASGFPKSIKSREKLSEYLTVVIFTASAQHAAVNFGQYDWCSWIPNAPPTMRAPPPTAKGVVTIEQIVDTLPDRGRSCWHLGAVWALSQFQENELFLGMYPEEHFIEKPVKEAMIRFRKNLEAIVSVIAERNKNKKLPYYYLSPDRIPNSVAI
Method: (§1) ARBL/ARBC WHOLE CELL 5-LIPOXYGENASE AND CYCLOOXYGENASE ASSAYS
(§2) The rat basophilic leukemia cell line (RBL-1) was obtained from the American Type Culture Collection (Rockville, Md.).
(§3) Radioimmunoassay (RIA) kits of LTB4 and PGF2α were obtained from Amersham (Arlington Heights, Ill.) and Seragen (Boston, Mass.), respectively.
(§4) RBL-1 cells are grown in suspension culture in Eagle's minimum essential medium supplemented with 12% fetal bovine serum at 37° C. in an incubator supplied with air 5% carbon dioxide. Cells are harvested by centrifugation. They are washed with cold phosphate buffered saline, pH 7.4 (PBS; NaCl, 7.1 g; Na2 HPO4, 1.15 g; KH2 PO4, 0.2 g; and KCl, 0.2 g/L). Cells are finally suspended in PBS containing 1.0 mM calcium at a density of 2×10^6 cells/mL. Cells are incubated […] test agent (in DMSO) (1% DMSO is without effect on arachidonic acid metabolism) for 10 minutes at room temperature. Calcium ionophore A23187 (5 μM) is added and cells are incubated for 7 minutes at 37° C. The reaction is stopped by chilling the tubes on ice for 10 minutes. Cells are separated by centrifugation and the supernatant is stored at -20° C. Aliquots (100 μL) are analyzed for LTB4 and PGF2α using radioimmunoassay kits as provided by the supplier.
(§5) Table 1 contains biochemical data for compounds of formula I obtained from this whole cell assay as amount of inhibition at 10 μM or IC50 s which are calculated as the concentration of a test compound in micromoles (μM) causing 50% inhibition of LTB4 or PGF2α formation.

cyclooxygenase = molecular target: T2, cyclooxygenase (Rattus norvegicus, UniProt Q63921); experiment: ARBC whole cell cyclooxygenase assay (inhibition of PGF2α formation in RBL-1 cells); format: cell-based; conditions: for pIC50: A23187 (5 μM) stimulated, PGF2α formation, read-out: ARBC, inhibition of PGF2, IC50; for inhibition at 10 µM: A23187 stimulated, read-out: ARBC, inhibition of PGF2
T2 construct: endogenous in cells; host or cells: RBL-1 (rat basophilic leukemia cells, from the American Type Culture Collection)
T2 sequence (Q63921 27-602): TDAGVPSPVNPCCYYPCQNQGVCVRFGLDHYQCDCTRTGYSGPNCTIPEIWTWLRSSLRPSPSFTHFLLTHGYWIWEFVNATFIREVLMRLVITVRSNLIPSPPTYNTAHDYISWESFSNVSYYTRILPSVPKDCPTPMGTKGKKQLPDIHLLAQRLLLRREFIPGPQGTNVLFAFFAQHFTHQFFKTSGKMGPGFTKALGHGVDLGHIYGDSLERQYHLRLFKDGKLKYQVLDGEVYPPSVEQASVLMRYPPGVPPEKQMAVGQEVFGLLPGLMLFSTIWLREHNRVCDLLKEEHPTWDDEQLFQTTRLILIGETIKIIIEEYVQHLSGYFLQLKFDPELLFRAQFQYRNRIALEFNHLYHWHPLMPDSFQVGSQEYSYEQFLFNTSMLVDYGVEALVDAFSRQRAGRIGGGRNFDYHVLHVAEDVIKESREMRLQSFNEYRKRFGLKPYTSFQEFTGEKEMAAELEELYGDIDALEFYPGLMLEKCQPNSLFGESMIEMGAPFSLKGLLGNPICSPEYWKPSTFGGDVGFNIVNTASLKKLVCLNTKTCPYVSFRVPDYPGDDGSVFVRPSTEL
Method: as §1, §2, §3, §4, §5

Row | Structure (SMILES) | pIC50 (5-lipoxygenase) | pIC50 (cyclooxygenase) | inhibition at 10 µM (cyclooxygenase; class symbol, 10 μM) | inhibition at 10 µM (5-lipoxygenase; inhibition at 10 μM) | also measured
1 | COc1ccc2[nH]c(C)c(/C=C3\SC(SC)=NC3=O)c2c1 [Example 1, (Z) -5-[(5 -Methoxy-2-methyl-1H -indol-3-yl)methylene]-2-(methylthio)-4(5H)-thiazolone] | 5.08 | 6.54 | – | – | –
2 | COc1ccc2[nH]c(C)c(/C=C3\SC(NC#N)=NC3=O)c2c1 [Example 2, (Z)-[4,5-Dihydro-5-[(5-methoxy-2-methyl-1H-indol-3-yl)methylene]-4-oxo-2-thiazolyl]-cyanamide] | – | – | < 40% | – | inhibition at 10 µM (5-lipoxygenase; class symbol, 10 μM): < 40%
3 | CSC1=NC(=O)/C(=C/c2c(C)[nH]c3ccccc23)S1 [Example 3, (Z) -5-[(2-Methyl-1H-indol-3-yl)methylene]-2-(methylthio)-4(5H)-thiazolone] | 5.35 | 6.85 | – | – | –
4 | COc1ccc2c(c1)c(/C=C1\SC(=S)N(CC(=O)O)C1=O)c(C)n2C(=O)c1ccc(Cl)cc1 [Example 4, (Z)-5-[[1-(4-Chlorobenzoyl)-5-methoxy-2-methyl-1H-indol-3-yl]methylene]-4-oxo-2-thioxo-3-thiazolidine acetic acid] | – | – | – | 90% | inhibition at 10 µM (cyclooxygenase; inhibition at 10 μM): 60%
5 | COc1ccc2c(c1)c(/C=C1\SC(N)=NC1=O)c(C)n2C(=O)c1ccc(Cl)cc1 [Example 5, (Z)-5-[[1-(4-Chlorobenzoyl)-5-methoxy-2-methyl-1H-indol-3-yl]methylene]-2-imino-4-thiazolidinone] | – | – | < 40% | 48% | –
